Data: US20240033502A1 (Wesbot, LLC, priority 2022, published 2024)
“And” between values parts separate entries of the source, which are not always exact repeats. Identical values can stand only once. Like-named read-outs stand apart in the source and are kept apart here.

What was measured:
E. coli [1] = assay: Killing (antimicrobial) test, CFU count; type: cell-based, Escherichia coli
Experimental: The initial colony forming units per mL (CFU/mL) were counted by plating 50 uL of a dilution 1:10,000 of the culture on LB agar plates. Next, 3 ml of the bacterial culture were treated with 1 ml of separately generated H2O2 0.75 M such that the final concentration of H2O2 in the bacteria containing plates reached around 0.25 M. To count the bacterial survival after treatment, 100 μl of 1:10,000 dilution were plated on LB agar plates and incubated at 37° C. for 18-24 hrs. The percentage of killed bacteria was calculated using the initial CFU as 100% and subtracting the recovered CFU after treatment.

E. coli [2] = conditions: 0.5 mL of 0.05 OD culture, 5 mA electric current for 30 min; triplicate experiments
Experimental: To test this an E. coli culture was grown from a single colony in LB media at 37° C., until reaching 0.05 OD. Next, 0.5 mL of this culture was treated with 5 mA of electric current for 30 min. The counting of CFU/ml before and after applying the current for 30 min was done by plating 50 and 100 μL of 1:10,000 dilution respectively on LB agar plates and incubating at 37° C. for 18-24 hrs.

[3] = system: Escherichia coli (strain BW25113); conditions: paper filter disks moistened with 0.75 M generated hydrogen peroxide in PBS on seeded LB agar, 37° C. for 18-24 hr, qualitative
Experimental: A plate with Lysogeny Broth (LB) Agar media was evenly seeded with a 1 Optical Density (OD) culture of Escherichia coli (strain BW25113). […] Plates were left to dry and incubated at 37° C. for 18-24 hr.

OO [hydrogen peroxide]
Peroxide Treated (CFU x 10^6) (E. coli [1]; 3 ml culture (0.05 OD) + 1 ml separately generated H2O2 0.75 M, final around 0.25 M, triplicate experiments): 1.2 CFU x 10^6 and 0.7 CFU x 10^6 | % Killed (%) (E. coli [1]; final H2O2 around 0.25 M, initial CFU as 100%, triplicate experiments): 96.1% and 96% and 94.2% | rate at which bacteria population is killed (E. coli [1]; from triplicate antimicrobial test, Table 4): 2.5 % CFU/μmol H2O2 | % Killed (%) (E. coli [2]): 99.6% | zone of growth inhibition [3]: disinfection in region of clearance | zone of growth inhibition ([3]; listed as H2O2): zone of growth inhibition
